Results: US20210292330A1, “PYRROLIDINE-FUSED HETEROCYCLES” (Erasca, Inc., priority 2020, published 2021)

Target: T1, KRAS 4B G12C protein (Homo sapiens, UniProt P01116, G12C)
T1 construct: This protein contained 188 amino acids in total, including an N-terminal 6-Histidine tag; made in house; host or cells: E. coli BL21
Test: In vitro covalent adduct formation (CAF) assay by LC-MS
Format: binding
Conditions: compound 10 μM, protein 5 μM, 22° C., percentage of protein bound by the compound
Method in brief: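 Percent of protein covalently modified was quantified from intact-mass LC-MS ratios of free versus adducted protein, adducts within 1 Da of expected mass. Reactions: 10 μM compound, 5 μM His-TEV-KRAS 4B G12C (1-169) in TBS pH 7.4, 4% DMSO, 22° C., one hour, run in duplicate.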

CAF (10 minutes/60 minutes) at 10 micromolar: 10 minutes | CAF (10 minutes/60 minutes) at 10 micromolar: 60 minutes | SMILES
48% | 70% | C=CC(=O)N1CCN(c2nc(OC[C@@H]3CCCN3C)nc3c2CN(Cc2cccc4c2CCO4)C3)C[C@@H]1CC#N [1-143]
0% | 8% | C=CC(=O)N1CCN(c2nc(OC[C@@H]3CCCN3C)nc3c2CN(Cc2c(F)cccc2F)C3)[C@@H](C)C1 [1-14]
0%/ 0% | 0%/ 0% | C=C(F)C(=O)N1CCN(c2nc(OC[C@@H]3CCCN3C)nc3c2CN(Cc2cccc4ncccc24)C3)C[C@@H]1CC#N [1-319]
40% | 86% | C=CC(=O)N1CCN(c2nc(OC[C@@H]3CCCN3C)nc3c2CN(Cc2cccc4cccc(C)c24)C3)C[C@@H]1CC#N [1-16]
56% | 91% | C=CC(=O)N1CCN(c2nc(OC[C@@H]3CCCN3C)nc3c2CN(Cc2cccc(F)c2)C3)C[C@@H]1CC#N [1-35]
20% | 62% | C=CC(=O)N1CCN(c2nc(OC[C@@H]3CCCN3C)nc3c2CN(Cc2cc(C(F)(F)F)ccc2C)C3)C[C@@H]1CC#N [1-8]
96% | 97% | C=CC(=O)N1CCN(c2nc(OC[C@@H]3CCCN3C)nc3c2CN(Cc2c(O)cccc2F)C3)C[C@@H]1CC#N [1-7, 2-((S)-1-acryloyl-4-(6-(2-fluoro-6-hydroxybenzyl)-2-(((S)-1-methylpyrrolidin-2-yl)methoxy)-6,7-dihydro-5H-pyrrolo[3,4-d]pyrimidin-4-yl)piperazin-2-yl)acetonitrile]
94% | 98% | C=CC(=O)N1CCN(c2nc(OC[C@@H]3CCCN3C)nc3c2CN(Cc2c(Cl)cccc2OC(F)F)C3)C[C@@H]1CC#N [1-82]
94% | 95% | C=CC(=O)N1CCN(c2nc(OC[C@@H]3CCCN3C)nc3c2CN(Cc2ccccc2C(F)(F)F)C3)C[C@@H]1CC#N [1-213]
32%/ 32% | 32%/ 32% | C=CC(=O)N1CCN(c2nc(OC[C@@H]3CCCN3C)nc3c2CN(C2CC(C)(C)c4ccc(O)cc42)C3)C[C@@H]1CC#N (stereo partly drawn) [1-194]
11% | 29% | C=CC(=O)N1CCN(c2nc(OC[C@@H]3CCCN3C)nc3c2CN(C2CCc4ccccc42)C3)[C@H](C#N)C1 (stereo partly drawn) [1-156]
94% | 95% | C=CC(=O)N1CCN(c2nc(OC[C@@H]3CCCN3C)nc3c2CN(Cc2ccccc2C(C)(C)C)C3)C[C@@H]1CC#N [1-187]
98% | 100% | C=CC(=O)N1CCN(c2nc(OC[C@@H]3CCCN3C)nc3c2CN(Cc2c(Cl)cccc2Cl)C3)C[C@@H]1CC#N [1-44]
88% | 96% | C=CC(=O)N1CCN(c2nc(OC[C@@H]3CCCN3C)nc3c2CN(Cc2cc(O)ccc2Cl)C3)CC1 [1-165]
0%/ 0% | 0%/ 0% | C=CC(=O)N1CCN(c2nc(OC[C@@H]3CCCN3C)nc3c2CN(Cc2cc(F)cc(F)c2)C3)[C@@H](C)C1 [1-13]
11% | 52% | C=CC(=O)N1CCN(c2nc(OC[C@@H]3CCCN3C)nc3c2CN(Cc2cccc4ncoc24)C3)C[C@@H]1CC#N [1-203]
80% | 87% | C=CC(=O)N1CCN(c2nc(OC[C@@H]3CCCN3C)nc3c2CN(C2CCc4ccc(O)c(Cl)c42)C3)C[C@@H]1CC#N (stereo partly drawn) [1-342]
98%/ 98% | 98%/ 98% | C=CC(=O)N1CCN(c2nc(OC[C@@H]3CCCN3C)nc3c2CN(Cc2c(O)cccc2Cl)C3)C[C@@H]1CC#N [1-51]
91% | 97% | C=CC(=O)N1CCN(c2nc(OC[C@@H]3CCCN3C)nc3c2CN(Cc2c(F)cccc2OC)C3)C[C@@H]1CC#N [1-36]
32% | 76% | C=CC(=O)N1CCN(c2nc(OC[C@@H]3CCCN3C)nc3c2CN(Cc2cc(O)c(Cl)cc2C)C3)C[C@@H]1CC#N [1-331]

The next lines start with the compound.

SMILES | CAF (10 minutes/60 minutes) at 10 micromolar: 10 minutes | CAF (10 minutes/60 minutes) at 10 micromolar: 60 minutes
C=CC(=O)N1CCN(c2nc(OCCCN3CCOCC3)nc3c2CN(C2CCc4ccccc42)C3)C[C@@H]1CC#N (stereo partly drawn) [1-131] | 76% | 97%
C=CC(=O)N1CCN(c2nc(CC[C@@H]3CCCN3C)nc3c2CN(C2CCc4ccccc42)C3)C[C@@H]1CC#N (stereo partly drawn) [1-146] | 7% | 33%
C=CC(=O)N1CCN(c2nc(OC[C@@H]3CCCN3C)nc3c2CN(C2CCc4ccccc42)C3)C[C@@H]1C(O)C(F)(F)F (stereo partly drawn) [1-118] | 0%/ 0% | 0%/ 0%
C=CC(=O)N1CCN(c2nc(OC[C@@H]3CCCN3CC(F)F)nc3c2CN(C2CCc4ccccc42)C3)C[C@@H]1CC#N (stereo partly drawn) [1-147] | 78% | 86%
C=CC(=O)N1CCN(c2nc(OC[C@@H]3CCCN3Cc3ccccc3)nc3c2CN(C2CCc4ccccc42)C3)C[C@@H]1CC#N (stereo partly drawn) [1-199] | 62% | 74%
C=CC(=O)N1CCN(c2nc(OC[C@@H]3CCCN3C)nc3c2CN(C2CCc4ccccc42)C3)C[C@@H]1Cn1ccnn1 (stereo partly drawn) [1-214] | 0% | 2%
C=CC(=O)N1CCN(c2nc(O[C@@H]3CN(C)C[C@H]3OC)nc3c2CN(C2CCc4ccccc42)C3)C2CS(=O)(=O)CC21 (stereo partly drawn) [1-228] | 0%/ 0% | 0%/ 0%
C=CC(=O)N1CCN(c2nc(OC[C@@H]3CC(F)(F)CN3C)nc3c2CN(C2CCc4ccccc42)C3)C[C@@H]1CC#N (stereo partly drawn) [1-133] | 84% | 90%
C=CC(=O)N1CCN(c2nc(OC[C@@H]3CCCN3CC)nc3c2CN(C2CCc4ccccc42)C3)C[C@@H]1CC#N (stereo partly drawn) [1-175] | 60% | 82%
C=C(F)C(=O)N1CCN(c2nc(OC[C@@H]3CCCN3C)nc3c2CN(Cc2c(Cl)cccc2OC(F)F)C3)C[C@@H]1CC#N [1-104] | 8% | 48%
C=C(F)C(=O)N1CCN(c2nc(OC[C@@H]3CCCN3C)nc3c2CN(Cc2ccccc2C(F)(F)F)C3)C[C@@H]1CC#N [1-221] | 62% | 92%
C=C(F)C(=O)N1CCN(c2nc(OC[C@@H]3CCCN3C)nc3c2CN(Cc2c[nH]nc2C)C3)C[C@@H]1CC#N [1-343] | 0%/ 0% | 0%/ 0%
C=CC(=O)N1CCN(c2nc(OCc3ccccn3)nc3c2CN(C2CCc4ccccc42)C3)C[C@@H]1CC#N (stereo partly drawn) [1-132] | 24% | 68%
C=CC(=O)N1C[C@H](C)N(c2nc(OC[C@@H]3CCCN3C)nc3c2CN(Cc2c(C)ccc(O)c2C)C3)C[C@H]1C [1-21] | 20% | 63%
C=C(F)C(=O)N1CCN(c2nc(OC[C@@H]3CCCN3C)nc3c2CN(C2CCc4ccccc42)C3)C[C@@H]1CC#N (stereo partly drawn) [1-109] | 48% | 68%
C=CC(=O)N1CCN(c2nc(OC[C@@H]3CCCN3CC(F)(F)F)nc3c2CN(C2CCc4ccccc42)C3)C[C@@H]1CC#N (stereo partly drawn) [1-141] | 51% | 71%
C=CC(=O)N1CCN(c2nc(OC[C@@H]3CCC(=O)N3C)nc3c2CN(C2CCc4ccccc42)C3)C[C@@H]1CC#N (stereo partly drawn) [1-122] | 21% | 57%
C=CC(=O)N1CCN(c2nc(OC[C@@H]3CCCN3C)nc3c2CN(C2CCc4ccccc42)C3)C[C@H]1C#N (stereo partly drawn) [1-145] | 60% | 74%
C=C(F)C(=O)N1CCN(c2nc(OC[C@@H]3CCCN3C)nc3c2CN(C2CCc4cccc(Cl)c42)C3)C[C@@H]1CC#N (stereo partly drawn) [1-154] | 52% | 82%
C=CC(=O)N1CCN(c2nc(OC[C@@H]3CCCN3C)nc3c2CN(C2CCc4ccccc42)C3)C[C@@H]1C(O)C(F)(F)F (stereo partly drawn) [1-117] | 0% | 4%
C=CC(=O)N1CCN(c2nc(OC[C@@H]3CCCN3C)nc3c2CN(Cc2nc(N)cc(C)c2C(F)(F)F)C3)C[C@@H]1CC#N [1-335] | 92% | 95%
C=CC(=O)N1CCN(c2nc(OC[C@@H]3C[C@H](F)CN3C)nc3c2CN(C2CCc4ccccc42)C3)C[C@@H]1CC#N (stereo partly drawn) [1-128] | 52% | 63%
